Assay results as given in patent US20240115557A1, “INHIBITORS OF RNA-GUIDED NUCLEASES AND USES THEREOF” (The Brigham and Women's Hospital, Inc., priority 2022, published 2024).

What was measured:
[1] = target: T1, SpCas9 (Streptococcus pyogenes serotype M1, UniProt Q99ZW2); assay: eGFP disruption assay, SpCas9, U2OS.eGFP.PEST cells; assay type: cell-based; conditions: for Normalized Z rep1 / Z score Rep1: replicate 1; for SpCas9 eGFP disruption Rep1: replicate 1, raw readout; for Normalized Z rep2 / Z socre Rep2: replicate 2; for SpCas9 eGFP disruption Rep2: replicate 2, raw readout
T1 sequence (Q99ZW2 whole entry): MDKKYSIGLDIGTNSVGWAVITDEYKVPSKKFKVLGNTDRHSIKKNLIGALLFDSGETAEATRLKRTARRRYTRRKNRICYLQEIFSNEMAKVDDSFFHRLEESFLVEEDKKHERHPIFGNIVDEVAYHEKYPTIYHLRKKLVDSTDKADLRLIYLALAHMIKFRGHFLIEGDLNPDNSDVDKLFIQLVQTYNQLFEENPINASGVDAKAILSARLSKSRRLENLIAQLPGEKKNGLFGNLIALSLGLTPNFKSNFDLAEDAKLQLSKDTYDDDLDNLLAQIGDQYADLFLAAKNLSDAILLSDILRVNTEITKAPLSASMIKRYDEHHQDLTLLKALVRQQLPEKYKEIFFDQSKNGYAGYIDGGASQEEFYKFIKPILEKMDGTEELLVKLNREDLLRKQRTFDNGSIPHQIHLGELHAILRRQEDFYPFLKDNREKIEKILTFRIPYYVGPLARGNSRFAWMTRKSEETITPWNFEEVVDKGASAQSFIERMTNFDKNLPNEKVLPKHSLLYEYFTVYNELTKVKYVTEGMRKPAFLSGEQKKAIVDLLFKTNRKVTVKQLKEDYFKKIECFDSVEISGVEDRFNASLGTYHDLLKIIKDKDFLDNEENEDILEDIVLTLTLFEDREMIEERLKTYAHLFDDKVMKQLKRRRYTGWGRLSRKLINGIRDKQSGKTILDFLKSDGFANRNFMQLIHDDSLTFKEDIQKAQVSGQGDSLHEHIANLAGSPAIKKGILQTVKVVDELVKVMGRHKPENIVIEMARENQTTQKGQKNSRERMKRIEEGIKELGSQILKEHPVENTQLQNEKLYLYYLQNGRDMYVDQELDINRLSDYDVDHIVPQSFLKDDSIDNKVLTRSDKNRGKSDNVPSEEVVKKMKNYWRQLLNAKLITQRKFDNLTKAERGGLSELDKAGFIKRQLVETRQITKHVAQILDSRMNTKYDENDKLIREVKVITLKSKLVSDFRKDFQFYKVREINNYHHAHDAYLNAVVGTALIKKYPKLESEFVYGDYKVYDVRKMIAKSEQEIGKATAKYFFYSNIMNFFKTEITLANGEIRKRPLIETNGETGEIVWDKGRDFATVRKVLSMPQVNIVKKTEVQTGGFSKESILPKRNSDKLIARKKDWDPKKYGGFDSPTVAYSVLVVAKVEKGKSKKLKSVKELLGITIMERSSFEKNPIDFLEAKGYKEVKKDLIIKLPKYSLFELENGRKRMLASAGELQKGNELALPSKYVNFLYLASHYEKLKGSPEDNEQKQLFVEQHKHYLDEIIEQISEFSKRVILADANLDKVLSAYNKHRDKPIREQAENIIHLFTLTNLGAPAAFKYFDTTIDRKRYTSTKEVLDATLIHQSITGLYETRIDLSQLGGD
Procedure, shortened: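 U2OS.eGFP.PEST cells nucleofected with 300 ng SpCas9 plasmid plus 30 ng eGFP-targeting gRNA plasmid, or with SpCas9 RNP (10 pmol protein, 12 pmol gRNA). Cells then incubated 24 h with compound (20 μM in screening). Inhibition is read as rescue of eGFP fluorescence in paraformaldehyde-fixed, nuclear-stained cells.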

[2] = target: T1, SpCas9; assay: Strand displacement assay (SDA) / cumulative activity assay (CAA), SpCas9 primary screen; assay type: biochemical; conditions: Primary Screen (150 min); for Normalized Z score 1: replicate 1; for Normalized Z score 2: replicate 2
Experimental: Screening of inhibitors was via a high throughput pipeline, as depicted in FIG. 29. The first screening is via a strand displacement assay (SDA) for detecting nuclease activity (FIG. 27A, 28A). The Cpf1/Cas12 protein/DNA complex has a different structure from Cas9 and requires optimization of the potential fluorophore attachment sites (Yamano, T et al., Cell, 2016). (FIG. 28A). Next screened compounds are evaluated in an eGFP cell assay, and for eGFP dose. Those compounds are further narrowed via a HiBiT assay and finally evaluated in the surveyor assay. SAR evaluations are performed to arrive at lead compounds for further evaluations and variations. General methodology for the assays is as described in at [0253]-[0301] of U.S. Patent Application 62/831,143 filed Apr. 8, 2019, incorporated herein by reference.
The 3′ end of the displacing single-stranded DNA was labeled with a quencher. Following nuclease cleavage of the substrate, the 3′-labeled quenching DNA strand (present in excess) could outcompete the weakly held 3′ strand to anneal to the 5′ strand. The resulting FRET fluorescence quenching provides an optical readout for nuclease activity (FIG. 62A).
Typically, SpCas9: gRNA (1:1.2 ratio) RNP was pre-formed at 1 μM in Cas9 assay buffer (20 mM Tris-HCl, pH=7.5, 100 mM KCl, 5 mM MgCl2) for 5 min at 4° C. before diluting to 10 nM in Cas9 assay buffer (2× final concentration). 25 μL of the Cas9 2× stock was manually dispensed to a black 384-well plate (Corning 3575) using electronic pipette. […] Following this, pre-annealed Alexa-Fluor 647 labeled substrate and quencher were also diluted to 1 nM and 5 nM in Cas9 assay buffer, respectively (2× stock solution). Next, 25 μL of the substrate/quencher solution was added manually to each well of the Cas9-containing 384-well plates using an electronic pipette and was incubated at 37° C. for 2.5 h. Fluorescent signals were read with the microplate reader set to read Alexa-Fluor 647 fluorescence. Assay was performed similarly with SaCas9 and FnCas12a using the respective enzyme, gRNA, substrate, and quencher oligos. […]

[3] = Cas9 = lower control, Ctrl = upper control
[4] = normalized, lower control about 0, upper control about 1

Row | SMILES | Normalized Z rep1 [1] | Z score Rep1 [1] | SpCas9 eGFP disruption Rep1 [1] | Normalized Z rep2 [1] | Z socre Rep2 [1] | SpCas9 eGFP disruption Rep2 [1] | Average Normalized Z score [2] | avg z score primary [2] | Normalized Z score 1 [2] | Normalized Z score 2 [2] | SpCas9 eGFP disruption Rep1 [1, 3] | Normalized Z rep1 [1, 4] | SpCas9 eGFP disruption Rep2 [1, 3] | Normalized Z rep2 [1, 4] | Average Normalized Z score ([2]; average of replicates)
1 | CNS(=O)(=O)c1ccc2nc(NC(=O)c3ccc(N4C(=O)CCC4=O)cc3)sc2c1 [Compound G786-1562] | −0.26 | −2.41 | 57.872 | −0.25 | −3.72 | 60.132 | 0.06 | 6.00 | 0.05 | 0.07 | – | – | – | – | –
2 | Cc1ccc(-c2nc(CN3CCCC(C(=O)Nc4cc(C)ccc4O)C3)no2)cc1 (stereo not drawn) [Compound J065-2258] | −0.12 | −1.25 | 73.517 | −0.06 | −1.43 | 74.702 | 0.12 | 5.05 | 0.10 | 0.14 | – | – | – | – | –
3 | C=Cc1ccc(CSC2=NS(=O)(=O)c3ccccc3N2)cc1 [Compound K261-1443] | −0.17 | −1.74 | 72.619 | −0.19 | −4.27 | 72.337 | 0.16 | 4.25 | 0.15 | 0.17 | – | – | – | – | –
4 | CCc1cccc(-n2nnnc2N2CCN(C(=O)Nc3ccc(C)cc3Cl)CC2)c1 [Compound L378-0331] | −0.41 | −2.70 | 68.157 | 0.06 | 0.61 | 77.513 | 0.19 | 5.44 | 0.16 | 0.21 | – | – | – | – | –
5 | CC(C)CNC(=O)c1ccc(Oc2ccnc(-c3ccc(F)cc3)n2)cc1 [Compound L662-0597] | 0.00 | 0.02 | 76.108 | −0.15 | −1.39 | 73.535 | 0.37 | 7.15 | 0.36 | 0.37 | – | – | – | – | –
6 | O=C(NCC1CCCO1)c1ccc(Oc2ccnc(-c3ccc(F)cc3)n2)cc1 (stereo not drawn) [Compound L662-0604] | – | 0.38 | – | – | 0.09 | – | 0.35 | 6.87 | 0.33 | 0.38 | 77.166 | 0.06 | 76.48 | 0.01 | –
7 | O=C(Nc1ccc(F)c(Cl)c1)c1ccc(Oc2ccnc(-c3ccc(F)cc3)n2)cc1 [Compound L662-0654] | −0.13 | −0.84 | 73.611 | −0.14 | −1.37 | 73.579 | 0.30 | 5.79 | 0.30 | 0.29 | – | – | – | – | –
8 | COc1ccc(OC)c(CNC(=O)c2ccc(Oc3ccnc(-c4cccc(F)c4)n3)cc2)c1 [Compound L662-0973] | – | 0.85 | – | – | 1.27 | – | 0.29 | 5.63 | 0.35 | 0.24 | 78.528 | 0.13 | 78.814 | 0.13 | –
9 | O=C(NCc1ccc(F)cc1)c1ccc(Oc2ccnc(-c3cccc(F)c3)n2)cc1 [Compound L662-0977] | −0.03 | −0.18 | 75.519 | −0.08 | −0.72 | 74.871 | 0.44 | 8.64 | 0.42 | 0.47 | – | – | – | – | –
10 | COc1ccc(CNC(=O)c2ccc(Oc3ccnc(-c4cccc(F)c4)n3)cc2)c(OC)c1 [Compound L662-0987] | – | 1.06 | – | – | 1.78 | – | 0.37 | 7.18 | 0.38 | 0.36 | 79.157 | 0.16 | 79.829 | 0.19 | –
11 | CCC(C)NC(=O)c1cccc(Oc2cc(-c3ccccc3)ncn2)c1 (stereo not drawn) [Compound L663-0996] | −0.03 | −0.21 | 75.44 | −0.37 | −3.54 | 69.294 | 0.39 | 7.57 | 0.43 | 0.35 | – | – | – | – | –
12 | O=C(NC1CCCCC1)c1cccc(Oc2cc(-c3ccccc3)ncn2)c1 [Compound L663-0999] | – | 0.55 | – | – | −1.03 | – | 0.40 | 7.77 | 0.44 | 0.36 | 77.659 | 0.08 | 74.256 | −0.11 | –
13 | O=C(NC1CCCC1)c1cccc(Oc2cc(-c3ccccc3)ncn2)c1 [Compound L663-1002] | −0.26 | −1.70 | 71.095 | 0.01 | 0.05 | 76.396 | 0.27 | 5.18 | 0.22 | 0.31 | – | – | – | – | –
14 | Cc1ccc(C(C)NC(=O)c2cccc(Oc3cc(-c4ccccc4)ncn3)c2)cc1 (stereo not drawn) [Compound L663-1062] | −0.10 | −0.64 | 74.182 | −0.07 | −0.70 | 74.913 | 0.28 | 5.51 | 0.28 | 0.29 | – | – | – | – | –
15 | O=C(NCc1ccc2c(c1)OCO2)c1cccc(Oc2cc(-c3ccccc3)ncn2)c1 [Compound L663-1076] | −0.11 | −0.69 | 74.045 | −0.01 | −0.12 | 76.06 | 0.40 | 7.72 | 0.38 | 0.41 | – | – | – | – | –
16 | COc1ccc(-c2cc(N3CCN(C(=O)c4ccc(C(C)(C)C)cc4)CC3)ncn2)cc1 [Compound M130-0012] | −0.10 | −0.67 | 74.104 | −0.03 | −0.27 | 75.755 | – | 20.61 | 0.28 | 0.28 | – | – | – | – | 0.28
17 | COc1ccc(C2CNC(=O)C2)cc1OC1CCCC1 (stereo not drawn) [Compound S2127] | −0.11 | −0.74 | 73.9 | −0.28 | −2.66 | 71.027 | – | 3.63 | 0.17 | 0.17 | – | – | – | – | 0.17
18 | Cc1ncc(-c2ccnc(Nc3ccc(S(C)(=O)=O)cc3)n2)n1C(C)C [Compound S2621] | −1.68 | −10.98 | 43.978 | −1.71 | −16.40 | 43.815 | – | 6.88 | 0.43 | 0.26 | – | – | – | – | 0.35
